In ChEMBL document CHEMBL3988442, “University of Dundee, Small-Polar-MMV Screening Library” (2021):

Experiments:
[1] = microbe, parasite or virus in culture; settings: Mycobacterium tuberculosis, 72 h, read-out: pIC50 (converted)
[2] = microbe, parasite or virus in culture; settings: Mycobacterium tuberculosis, 96 h, read-out: pIC50 (converted)

Cc1cc(C)nc(N2CCCC(c3cccc(-n4ccnc4)n3)C2)n1 (stereo unspecified)
IC50 [1]: 26.9 µM
IC50 [2]: 28.7 µM

Nc1cc(-c2c[nH]nc2C2CCCCN2C(=O)C2CCCC2)ccn1 (stereo unspecified)
IC50 [1]: > 50.1 µM
IC50 [2]: > 50.1 µM

COc1ncccc1CN(C)S(=O)(=O)c1cccs1
IC50 [1]: 159 µM
IC50 [2]: 286 µM

Cc1ccc2nc(-c3cnc(N)nc3)c(C)c(C(=O)N(C)C)c2c1
IC50 [1]: > 50.1 µM
IC50 [2]: > 50.1 µM

Cc1n[nH]cc1CNCCNc1ncc(Cl)cc1Cl
IC50 [1]: 82.1 µM
IC50 [2]: > 501 µM

O=C(NCCNC(=O)C1CCCC1)c1ccccc1O
IC50 [1]: 229 µM
IC50 [2]: 402 µM

COCc1ccc(CNc2cnn(C(C)(C)C)c(=O)c2Cl)cc1
IC50 [1]: > 50.1 µM
IC50 [2]: 15.3 µM

Cc1ccc2[nH]c(=O)cc(C(=O)NCCCn3nccc3C3CC3)c2c1
IC50 [1]: 26.1 µM
IC50 [2]: > 50.1 µM

CCOCCC(=O)N1CCN(c2ccc(F)cc2)CC1
IC50 [1]: 11.3 µM
IC50 [2]: 129 µM

CCNC1=NN=C(c2ccc(OC)c(F)c2)CS1
IC50 [1]: 137 µM
IC50 [2]: 134 µM

CNc1cc(CN(C)Cc2cccs2)ccn1
IC50 [1]: 276 µM
IC50 [2]: 276 µM

CC(CO)(CO)NC(=O)c1cnc(-c2cccs2)s1
IC50 [1]: > 501 µM
IC50 [2]: > 501 µM

Cc1ccsc1[C@@H]1CCN(C(=O)CCOc2ccccc2)C[C@H]1O
IC50 [1]: > 50.1 µM
IC50 [2]: > 50.1 µM

CCOc1nn(CC)cc1-c1nnc(SCc2ccccn2)n1C
IC50 [1]: 25.4 µM
IC50 [2]: > 50.1 µM

CCC1Oc2c(Cl)cccc2NC1=O (stereo unspecified)
IC50 [1]: > 501 µM
IC50 [2]: > 501 µM

COc1ccnc(NC(=O)NCc2cccs2)c1
IC50 [1]: 90.3 µM
IC50 [2]: 119 µM

CCc1ncc(CN(CCc2ccccc2)Cc2cccs2)cn1
IC50 [1]: 19.7 µM
IC50 [2]: 9.25 µM

O=C1CCN(CCOc2cc(F)cc(Br)c2)CCN1
IC50 [1]: 198 µM
IC50 [2]: 279 µM

CC(C)CC1CCN(S(N)(=O)=O)C1 (stereo unspecified)
IC50 [1]: > 501 µM
IC50 [2]: > 501 µM

COC(=O)CCCC(=O)N1CCC2(CCCC2)C1
IC50 [1]: 180 µM
IC50 [2]: 110 µM

N#Cc1cc(Br)ccc1NCCC(=O)N1CCOCC1
IC50 [1]: 165 µM
IC50 [2]: > 501 µM

N#Cc1cccc(C(=O)OCCCn2cccn2)c1
IC50 [1]: > 501 µM
IC50 [2]: > 501 µM

CN(C)C(C)(C)CNC(=O)NCCC1CCCCO1 (stereo unspecified)
IC50 [1]: > 501 µM
IC50 [2]: > 501 µM

CC1Cc2ccccc2N(C(=O)c2csnn2)C1 (stereo unspecified)
IC50 [1]: > 501 µM
IC50 [2]: > 501 µM

Cc1cccc(C(=O)NCc2cccc(O)c2)n1
IC50 [1]: 172 µM
IC50 [2]: 489 µM

Fc1ccccc1-c1nc(CNCCn2cccn2)cs1
IC50 [1]: > 50.1 µM
IC50 [2]: > 50.1 µM

C[C@@H](CO)Nc1ncc(Cl)cc1Br
IC50 [1]: 291 µM
IC50 [2]: > 501 µM

CN(Cc1cccc(OC(F)(F)F)c1)C(=O)c1cnsn1
IC50 [1]: 24.3 µM
IC50 [2]: 33.3 µM

O=C(CC1C=CCC1)N1CCN(Cc2ccco2)CC1 (stereo unspecified)
IC50 [1]: 184 µM
IC50 [2]: 228 µM

O=C(CCn1cccn1)N1CCc2sccc2C1
IC50 [1]: 117 µM
IC50 [2]: > 501 µM

Cc1cccnc1CN(C)C(C(=O)O)c1ccc(-n2cccn2)cc1 (stereo unspecified)
IC50 [1]: 27 µM
IC50 [2]: 20.1 µM

OC(CN1CCn2ccnc2C1)c1ccc(F)cc1 (stereo unspecified)
IC50 [1]: 173 µM
IC50 [2]: > 501 µM

FC(F)(F)c1ccc2nc([C@H]3CCN(C4CCCCC4)C3)[nH]c2c1
IC50 [1]: 27.5 µM
IC50 [2]: 24.9 µM

CCCc1ccc(S(=O)(=O)N2CCNCC2)cc1
IC50 [1]: 299 µM
IC50 [2]: > 501 µM

Cc1cc(NCC2CCS(=O)(=O)C2)n2nc(C)cc2n1 (stereo unspecified)
IC50 [1]: > 50.1 µM
IC50 [2]: > 50.1 µM

NCCOc1ccc2ccccc2n1
IC50 [1]: 244 µM
IC50 [2]: > 501 µM

CCOCCNC(=O)Nc1ccc(OCc2noc(C3CC3)n2)cc1
IC50 [1]: > 50.1 µM
IC50 [2]: > 50.1 µM

CN(C)c1cc2c(nn1)CCN(C(=O)c1cc3ccccc3[nH]c1=O)C2
IC50 [1]: > 50.1 µM
IC50 [2]: > 50.1 µM

O=C(CCN1CCCC1CO)NCc1ccccc1Cl (stereo unspecified)
IC50 [1]: 460 µM
IC50 [2]: > 501 µM

Cc1cc2nc(C(C)C)cc(N(C)CC3CCCN3C)n2n1 (stereo unspecified)
IC50 [1]: 9.21 µM
IC50 [2]: > 50.1 µM

COc1ncccc1CNS(=O)(=O)c1cccc(Cl)c1
IC50 [1]: 230 µM
IC50 [2]: 311 µM

NS(=O)(=O)CC1CCN(c2ncc(Br)cn2)CC1
IC50 [1]: 286 µM
IC50 [2]: 424 µM

O=C(Cn1cnnn1)Nc1ccc(SC(F)F)cc1
IC50 [1]: 180 µM
IC50 [2]: 290 µM

CCC(CO)Nc1ncc(C(F)(F)F)cc1Cl (stereo unspecified)
IC50 [1]: > 501 µM
IC50 [2]: > 501 µM

O=C(NCCSCc1cccc(Cl)c1)C1CNCCO1 (stereo unspecified)
IC50 [1]: 266 µM
IC50 [2]: 259 µM

CCCn1nnnc1NCc1ccsc1
IC50 [1]: 171 µM
IC50 [2]: 132 µM

COc1ccccc1CC(=O)Nc1ncc(C(N)=O)s1
IC50 [1]: > 501 µM
IC50 [2]: > 501 µM

NCc1nc(-c2ccc(F)cc2)c[nH]1
IC50 [1]: 222 µM
IC50 [2]: > 501 µM

Cc1ccc(OCC(=O)Nc2nnn(C)n2)cc1
IC50 [1]: 274 µM
IC50 [2]: > 501 µM

CNC(=O)CCSc1ccc2c(c1)OCCO2
IC50 [1]: 143 µM
IC50 [2]: 165 µM

O[C@@H]1CNC[C@H]1n1ccnn1
IC50 [1]: 286 µM
IC50 [2]: 289 µM

Cc1cc(C(=O)NCc2csc(N(C)C)n2)c2ccc(C)c(C)c2n1
IC50 [1]: 19 µM
IC50 [2]: 13.6 µM

CC(C)n1nnnc1SCCS(=O)(=O)c1ccccc1
IC50 [1]: 82.8 µM
IC50 [2]: 164 µM
